Test results reported in patent publication US20250059172A1, “INDAZOLE COMPOUND AND PHARMACEUTICAL” (NIPPON SHINYAKU CO., LTD., priority 2021, published 2025).
Counter-ions that a name gives are not always drawn.

What was measured:
[1] = target: human mPGES-1 (Homo sapiens (Human), UniProt O14684); assay: mPGES-1 inhibitory activity test; format: biochemical; conditions: for inhibition at 0.01 µM: 10 nM test compound; for inhibition at 0.1 µM: 100 nM test compound; for IC50: microsomes of CHO-K1 cells expressing human mPGES-1, PGH2 1 μM, PGE2 by HTRF, read-out: mPGES-1 inhibition (IC50 nM)
human mPGES-1, sequence (O14684 whole entry): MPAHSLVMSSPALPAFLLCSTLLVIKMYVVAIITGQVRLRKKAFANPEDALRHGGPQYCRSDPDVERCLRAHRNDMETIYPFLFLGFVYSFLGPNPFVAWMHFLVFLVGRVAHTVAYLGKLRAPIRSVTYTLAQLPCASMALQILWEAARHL
Protocol: mPGES-1 microsomal specimens were prepared by transiently transfecting CHO-K1 cells (DS Pharma Biomedical Co. Ltd) with a plasmid encoding human mPGES-1 cDNA using FuGENE 6 Transfection Reagent (Promega). The prepared mPGES-1 microsome specimens were diluted in potassium phosphate buffer of pH 7.4 comprising 2.5 mM reduced glutathione (Sigma-Aldrich), DMSO solution of a test compound or DMSO was added to a final concentration of 1% of DMSO, and then incubated at 4° C. for 20 minutes. The enzymatic reaction was then initiated by adding a solution of PGH2 (Cayman chemical) substrate of a final concentration 1 μM and incubated at 4° C. for 60 seconds. The reaction was terminated by adding a solution of ferric chloride (STREM CHEMICALS) and citric acid (Wako Pure Chemical Industries) salt to a final concentration of 5 mg/mL and 250 mM, respectively. The formed PGE2 was quantified using the HTRF kit (Cisbio International). Solutions without the test compound were used as positive controls, and solutions without the test compound and microsomal specimens were used as negative controls. 100% activity was defined as production of PGE2 in the positive control minus that in the negative control. The percentage inhibition of production of PGE2 at final concentrations of 10 nM and 100 nM of the test compound was then calculated, or IC50 values were determined using standard methods.

[2] = tested on: human A549 cells; assay: Inhibition test of PGE2 production using human A549 cells; format: cell-based; conditions: IL-1β stimulated A549 cells, 24 h, PGE2 by HTRF, read-out: A549 cell inhibition of PGE2 production IC50
Protocol: 100 μL of RPMI medium (Sigma) comprising 10% FBS and human A549 cells was seeded in a 96-well plate to […] cells per well, and incubated overnight. The medium was then removed and washed with phosphate-buffered saline, and added to a DMSO solution of the test compound or RPMI medium comprising 3% FBS with DMSO to a final concentration of 0.1% DMSO. After incubation for 60 minutes, IL-1P (5 ng/well, BioLegend) was added to the solution. After incubation at 37° C. for 24 h, PGE2 in the medium was quantified using the HTRF kit (Cisbio International) and PGF2a was also quantified using the EIA kit (Cayman chemical). Solutions without the test compound were used as positive controls, and solutions without the test compound and IL-1β were used as negative controls. 100% activity was defined as production of PGE2 and PGF2a in the positive control minus those in the negative control. IC50 values were then determined using standard methods.

Compound | inhibition at 0.01 µM [1] | IC50 [2] | inhibition at 0.1 µM [1] | IC50 [1]
O=C(Nc1cccc2c1cnn2-c1cccc(OC(F)F)c1)c1cc(CNS(=O)(=O)C2CC2)ccc1Cl [Example 144, 2-Chloro-5-{[(cyclopropylsulfonyl)amino]methyl}-N-{1-[3-(difluoromethoxy)phenyl]-1H-indazol-4-yl}benzamide] | 73% | 1.8 nM | 100% | –
COc1cc(-n2ncc3c(NC(=O)c4cc(CNC(=O)CC(C)(C)C)ccc4Cl)cccc32)ccn1 [Example 159, 2-Chloro-5-{[(3,3-dimethylbutanoyl)amino]methyl}-N-[1-(2-methoxypyridin-4-yl)-1H-indazol-4-yl]benzamide] | 55% | 9.1 nM | 100% | –
N#CC1(C(=O)NCc2ccc(Cl)c(C(=O)Nc3cccc4c3cnn4-c3ccc(C(F)(F)F)cc3)c2)CC1 [Example 25, 2-Chloro-5-({[(1-cyanocyclopropyl)carbonyl]amino}methyl)-N-{1-[4-(trifluoromethyl)phenyl]-1H-indazol-4-yl}benzamide] | – | 8.6 nM | – | 3.9 nM
O=C(Nc1cccc2c1cnn2-c1ccccc1)c1cc(CNC(=O)C2CC2)ccc1Cl [Example 2, 2-Chloro-5-{[(cyclopropylcarbonyl)amino]methyl}-N-(1-phenyl-1H-indazol-4-yl)benzamide] | – | 6.3 nM | – | 0.2 nM
COc1cc(-n2ncc3c(NC(=O)c4cc(CNC(=O)C(C)(C)CO)ccc4Cl)cccc32)ccn1 [Example 164, 2-Chloro-5-{[(3-hydroxy-2,2-dimethylpropanoyl)amino]methyl}-N-[1-(2-methoxypyridin-4-yl)-1H-indazol-4-yl]benzamide] | 69% | 28.4 nM | 100% | –
O=C(Nc1cccc2c1cnn2-c1ccc(C(F)(F)F)cc1)c1cc(CNC(=O)C2CCCC2)ccc1Cl [Example 30, 2-Chloro-5-{[(cyclopentylcarbonyl)amino]methyl}-N-{1-[4-(trifluoromethyl)phenyl]-1H-indazol-4-yl}benzamide] | – | 2.6 nM | – | 5.5 nM
O=C(Nc1cccc2c1cnn2-c1cccc(C(F)(F)F)c1)c1cc(CNC(=O)C2(O)CC2)ccc1Cl [Example 221, 2-Chloro-5-({[(1-hydroxycyclopropyl)carbonyl]amino}methyl)-N-{1-[3-(trifluoromethyl)phenyl]-1H-indazol-4-yl}benzamide] | 65% | 2.6 nM | 100% | –
O=C(Nc1cccc2c1cnn2-c1ccccn1)c1cc(CNC(=O)C2CC2)ccc1Cl [Example 8, 2-Chloro-5-{[(cyclopropylcarbonyl)amino]methyl}-N-[1-(pyridin-2-yl)-1H-indazol-4-yl]benzamide] | – | 11.3 nM | – | 3.9 nM
O=C(Cc1ccccc1)NCc1ccc(Cl)c(C(=O)Nc2cccc3c2cnn3-c2ccc(C(F)(F)F)cc2)c1 [Example 44, 2-Chloro-5-{[(phenylacetyl)amino]methyl}-N-{1-[4-(trifluoromethyl)phenyl]-1H-indazol-4-yl}benzamide] | – | 151 nM | – | 7.2 nM
O=C(Nc1cccc2c1cnn2-c1cncc(C(F)(F)F)c1)c1cc(CNC(=O)C2CC2)ccc1Cl [Example 11, 2-Chloro-5-{[(cvclopropylcarbonyl)amino]methyl}-N-{1-[5-(trifluoromethyl)pyridin-3-yl]-1H-indazol-4-yl}benzamide] | – | 3.4 nM | – | 2.9 nM
COc1ccccc1-n1ncc2c(NC(=O)c3cc(CNC(=O)C4CC4)ccc3Cl)cccc21 [Example 13, 2-Chloro-5-{[(cyclopropylcarbonyl)amino]methyl}-N-[1-(2-methoxyphenyl)-1H-indazol-4-yl]benzamide] | – | 505 nM | – | 2 nM
O=C(Nc1cccc2c1cnn2-c1cccc(C(F)(F)F)c1)c1cc(CNC(=O)C2(C(F)(F)F)CC2)ccc1Cl [Example 220, 2-Chloro-5-[({[1-(trifluoromethyl)cyclopropyl]carbonyl}amino)methyl]-N-{1-[3-(trifluoromethyl)phenyl]-1H-indazol-4-yl}benzamide] | 74% | < 1 nM | 90% | –

The next lines start with the values.

inhibition at 0.01 µM [1] | IC50 [2] | inhibition at 0.1 µM [1] | IC50 [1] | Compound
77% | 12.9 nM | – | – | O=C(Nc1cccc2c1cnn2-c1nccs1)c1cc(CNC(=O)C2(C(F)(F)F)CC2)ccc1Cl [Example 228, 2-Chloro-N-[1-(1,3-thiazol-2-yl)-1H-indazol-4-yl]-5-[({[1-(trifluoromethyl)cyclopropyl]carbonyl}amino)methyl]benzamide]
– | 5.9 nM | – | 5.9 nM | Cc1cc(-n2ncc3c(NC(=O)c4cc(CNC(=O)C(C)(C)C)ccc4Cl)cccc32)ccn1 [Example 58, 2-Chloro-5-{[(2,2-dimethylpropanoyl)amino]methyl}-N-[1-(2-methylpyridin-4-yl)-1H-indazol-4-yl]benzamide hydrochloride]
– | 4.2 nM | – | 5.4 nM | CC(C)(C)C(=O)NCc1ccc(Cl)c(C(=O)Nc2cccc3c2cnn3Cc2ccc(C(F)(F)F)cc2)c1 [Example 92]
– | 2.9 nM | – | 3.5 nM | COc1cncc(-n2ncc3c(NC(=O)c4cc(CNC(=O)C(C)(C)C)ccc4Cl)cccc32)c1 [Example 61, 2-Chloro-5-{[(2,2-dimethylpropanoyl)amino]methyl}-N-[1-(5-methoxypyridin-3-yl)-1H-indazol-4-yl]benzamide hydrochloride]
– | 5.2 nM | – | 1.1 nM | CC(C)(C)C(=O)NCc1ccc(Cl)c(C(=O)Nc2cccc3c2cnn3-c2nccs2)c1 [Example 80, 2-Chloro-5-{[(2,2-dimethylpropanoyl)amino]methyl}-N-[1-(1,3-thiazol-2-yl)-1H-indazol-4-yl]benzamide]
79% | 14.7 nM | 80% | – | CCn1ncc2c(NC(=O)c3cc(CNC(=O)C(C)(C)C)ccc3C(F)(F)F)cccc21 [Example 217, 5-{[(2,2-Dimethylpropanoyl)amino]methyl}-N-(1-ethyl-1H-indazol-4-yl)-2-(trifluoromethyl)benzamide]
89% | 0.3 nM | 85% | – | COc1ccc(-n2ncc3c(NC(=O)c4cc(CNC(=O)C5(C(F)(F)F)CC5)ccc4Cl)cccc32)cc1C(F)(F)F [Example 263, 2-Chloro-N-{1-[4-methoxy-3-(trifluoromethyl)phenyl]-1H-indazol-4-yl}-5-[({[1-(trifluoromethyl)cyclopropyl]carbonyl}amino)methyl]benzamide]
76% | 38.4 nM | 90% | – | Cn1ncc2c(NC(=O)c3cc(CNC(=O)C(C)(C)C)ccc3C(F)(F)F)cccc21 [Example 209, 5-{[(2,2-Dimethylpropanoyl)amino]methyl}-N-(1-methyl-1H-indazol-4-yl)-2-(trifluoromethyl)benzamide]
– | 20.2 nM | – | 1.2 nM | CCn1ncc2c(NC(=O)c3cc(CNC(=O)C(C)(C)C)ccc3Cl)cccc21 [Example 113, 2-Chloro-5-{[(2,2-dimethylpropanoyl)amino]methyl}-N-(1-ethyl-1H-indazol-4-yl)benzamide]
72% | 1.9 nM | 96% | – | Cc1cc(-n2ncc3c(NC(=O)c4cc(CNC(=O)C(C)(C)C)ccc4C(F)(F)F)cccc32)cc(C)n1 [Example 283, 5-{[(2,2-Dimethylpropanoyl)amino]methyl}-N-[1-(2,6-dimethylpyridin-4-yl)-1H-indazol-4-yl]-2-(trifluoromethyl)benzamide]
– | 0.3 nM | – | 14.9 nM | CC(C)(C)C(=O)NCc1ccc(Cl)c(C(=O)Nc2cccc3c2cnn3-c2cccc(OC(F)F)c2)c1 [Example 81, 2-Chloro-N-{1-[3-(difluoromethoxy)phenyl]-1H-indazol-4-yl}-5-{[(2,2-dimethylpropanoyl)amino]methyl}benzamide]
– | 399 nM | – | 10 nM | CC(C)(C)C(=O)NCc1ccc(Cl)c(C(=O)Nc2cccc3c2cnn3CCN2CCOCC2)c1 [Example 107, 2-Chloro-5-{[(2,2-dimethylpropanoyl)amino]methyl}-N-{1-[2-(morpholin-4-yl)ethyl]-1H-indazol-4-yl}benzamide hydrochloride]
– | 884 nM | – | 175 nM | CC(=O)N1CCC(n2ncc3c(NC(=O)c4cc(CNC(=O)C(C)(C)C)ccc4Cl)cccc32)CC1 [Example 106, N-[1-(1-acetylpiperidin-4-yl)-1H-indazol-4-yl]-2-chloro-5-{[(2,2-dimethylpropanoyl)amino]methyl}benzamide]
